US8148367B2 (Takeda Pharmaceutical Company Limited, priority 2008, dated 2012)

Target: T1, Recombinant human renin (Homo sapiens, UniProt P00797)
T1 construct: isolate the active form (residues 67-406); made in house; host or cells: FreeStyle 293-F cells, transient expression of pcDNA3.1(+)/hREN
T1 sequence (P00797 67-406): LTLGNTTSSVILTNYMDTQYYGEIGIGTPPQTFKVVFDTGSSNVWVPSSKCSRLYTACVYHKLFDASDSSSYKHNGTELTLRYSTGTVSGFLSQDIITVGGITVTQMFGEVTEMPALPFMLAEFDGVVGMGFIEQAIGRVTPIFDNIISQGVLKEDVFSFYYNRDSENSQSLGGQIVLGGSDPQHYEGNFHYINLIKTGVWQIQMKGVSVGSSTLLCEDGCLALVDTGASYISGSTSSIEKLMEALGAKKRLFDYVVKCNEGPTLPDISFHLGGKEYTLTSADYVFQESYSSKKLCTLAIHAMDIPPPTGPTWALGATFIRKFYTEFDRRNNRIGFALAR
Test: In vitro enzymatic activity assay of renin inhibitors (fluorescence, QXL520/HiLyteFluo488 peptide substrate)
Assay type: biochemical
Settings: not given

Compound | IC50
Cc1ccccc1-n1c(-c2ccccc2)c(C(=O)N2CCNCC2)n(CCCNC(=O)Oc2ccccc2)c1=O [Example 252, Phenyl 3-(2-oxo-4-phenyl-5-(piperazine-1-carbonyl)-3-o-tolyl-2,3-dihydro-1H-imidazol-1-yl)propylcarbamate] | > 1 µM

Same assay, conditions: recombinant human renin 3 nM, 1 μM substrate, pre-incubated 10 minutes at 37° C., incubation one hour, pH 7.4, 5% DMSO; read-out: IC50 of Exemplified Compounds Against Renin

Compound | IC50
O=C(c1[nH]c(=O)n(-c2ccccc2)c1-c1ccccc1)N1CCNC[C@H]1Cc1ccccc1 [Example 109, (R)-4-(2-Benzylpiperazine-1-carbonyl)-1,5-diphenyl-1H-imidazol-2(3H)-one] | < 0.1 µM
O=C(c1[nH]c(=O)n(-c2ccccn2)c1-c1ccccc1)N1CCNCC1 [Example 19, 5-Phenyl-4-(piperazine-1-carbonyl)-1-(pyridin-2-yl)-1H-imidazol-2(3H)-one] | > 1 µM
CC(C)S(=O)(=O)NCCCn1c(C(=O)N2CCNCC2)c(-c2ccccc2)n(-c2cccc(N3CCOCC3)c2)c1=O [Example 196, N-(3-(3-(3-Morpholinophenyl)-2-oxo-4-phenyl-5-(piperazine-1-carbonyl)-2,3-dihydro-1H-imidazol-1-yl)propyl)propane-2-sulfonamide] | > 1 µM
COCCCOc1cccc(-n2c(-c3ccccc3)c(C(=O)N3CCNCC3)n(CCCNS(=O)(=O)c3ccccc3)c2=O)c1 [Example 180, N-(3-(3-(3-(3-Methoxypropoxy)phenyl)-2-oxo-4-phenyl-5-(piperazine-1-carbonyl)-2,3-dihydro-1H-imidazol-1-yl)propyl)benzenesulfonamide] | 0.1 to 0.5 µM
CN1CCOc2ccc(-n3c(-c4ccccc4)c(C(=O)N4CCNC[C@H]4Cc4ccccc4)[nH]c3=O)cc21 [Example 135, (R)-4-(2-Benzylpiperazine-1-carbonyl)-1-(4-methyl-3,4-dihydro-2H-benzo[b][1,4]oxazin-6-yl)-5-phenyl-1H-imidazol-2(3H)-one] | < 0.1 µM
COc1ccccc1-n1c(-c2ccccc2)c(C(=O)N2CCNCC2)n(Cc2cccc(OCCOc3ccccc3)c2)c1=O [Example 188, 1-(2-Methoxyphenyl)-3-(3-(2-phenoxyethoxy)benzyl)-5-phenyl-4-(piperazine-1-carbonyl)-1H-imidazol-2(3H)-one] | 0.1 to 0.5 µM
COCCCOc1cccc(-n2c(-c3ccccc3)c(C(=O)N3CCNCC3)n(Cc3cccc(Oc4ccccc4)c3)c2=O)c1 [Example 13, 1-(3-(3-methoxypropoxy)phenyl)-3-(3-phenoxybenzyl)-5-phenyl-4-(piperazine-1-carbonyl)-1H-imidazol-2(3H)-one] | > 1 µM
C=CCn1c(C(=O)N2CCNCC2)c(-c2ccccc2)n(-c2ccccc2OC)c1=O [Example 145, 1-Allyl-3-(2-methoxyphenyl)-4-phenyl-5-(piperazine-1-carbonyl)-1H-imidazol-2(3H)-one] | > 1 µM
Cc1ccccc1-n1c(-c2ccccc2)c(C(=O)N2CCNCC2)n(CCNC(=O)c2cccc(Cl)c2)c1=O [Example 232, 3-Chloro-N-(2-(2-oxo-4-phenyl-5-(piperazine-1-carbonyl)-3-o-tolyl-2,3-dihydro-1H-imidazol-1-yl)ethyl)benzamide] | 0.5 to 1 µM
Cc1ccccc1-n1c(-c2ccccc2)c(C(=O)N2CCNCC2)n(CCNC(=O)c2ccccc2Cl)c1=O [Example 231, 2-Chloro-N-(2-(2-oxo-4-phenyl-5-(piperazine-1-carbonyl)-3-o-tolyl-2,3-dihydro-1H-imidazol-1-yl)ethyl)benzamide] | > 1 µM
O=C(c1c(-c2ccccc2)n([C@@H]2CCCC[C@H]2O)c(=O)n1Cc1cccc(Oc2ccccc2)c1)N1CCNCC1 [Example 106, 1-((1R,2R)-2-Hydroxycyclohexyl)-3-(3-phenoxybenzyl)-5-phenyl-4-(piperazine-1-carbonyl)-1H-imidazol-2(3H)-one] | 0.1 to 0.5 µM
Cc1ccccc1-n1c(-c2ccccc2)c(C(=O)N2CCNCC2)n(CCCNS(=O)(=O)c2cccc(Cl)c2)c1=O [Example 218, 3-Chloro-N-(3-(2-oxo-4-phenyl-5-(piperazine-1-carbonyl)-3-o-tolyl-2,3-dihydro-1H-imidazol-1-yl)propyl)benzenesulfonamide] | 0.1 to 0.5 µM
Cc1ccccc1-n1c(-c2ccccc2)c(C(=O)N2CCNCC2)n(CCCNS(=O)(=O)c2ccccc2Cl)c1=O [Example 217, 2-Chloro-N-(3-(2-oxo-4-phenyl-5-(piperazine-1-carbonyl)-3-o-tolyl-2,3-dihydro-1H-imidazol-1-yl)propyl)benzenesulfonamide] | < 0.1 µM
Cc1ccccc1-n1c(-c2ccccc2)c(C(=O)N2CCNCC2)n(CCNC(=O)Nc2ccc(Cl)cc2)c1=O [Example 213, 1-(4-Chlorophenyl)-3-(2-(2-oxo-4-phenyl-5-(piperazine-1-carbonyl)-3-o-tolyl-2,3-dihydro-1H-imidazol-1-yl)ethyl)urea] | 0.1 to 0.5 µM
O=C(c1c(-c2ccccc2)n(-c2cccc(N3CCOCC3)c2)c(=O)n1CCCNS(=O)(=O)c1cccc(Cl)c1)N1CCNCC1 [Example 195, 3-Chloro-N-(3-(3-(3-morpholinophenyl)-2-oxo-4-phenyl-5-(piperazine-1-carbonyl)-2,3-dihydro-1H-imidazol-1-yl)propyl)benzenesulfonamide] | 0.5 to 1 µM
COc1cccc(Cn2c(C(=O)N3CCNCC3)c(-c3ccccc3)n(-c3ccccc3OC)c2=O)c1 [Example 147, 1-(3-Methoxybenzyl)-3-(2-methoxyphenyl)-4-phenyl-5-(piperazine-1-carbonyl)-1H-imidazol-2(3H)-one] | > 1 µM
Cc1ccccc1-n1c(-c2ccccc2)c(C(=O)N2CCNCC2)n(CCCNC(=O)C(C)C)c1=O [Example 246, N-(3-(2-oxo-4-phenyl-5-(piperazine-1-carbonyl)-3-o-tolyl-2,3-dihydro-1H-imidazol-1-yl)propyl)isobutyramide] | > 1 µM
COC1CCc2ccc(-n3c(-c4ccccc4)c(C(=O)N4CCNC[C@H]4Cc4ccccc4)[nH]c3=O)cc21 (stereo partly drawn) [Example 138, 4-((R)-2-Benzylpiperazine-1-carbonyl)-1-(3-methoxy-2,3-dihydro-1H-inden-5-yl)-5-phenyl-1H-imidazol-2(3H)-one] | 0.1 to 0.5 µM

Further lines, results first:

IC50 | Compound
< 0.1 µM | CS(=O)(=O)c1cccc(-n2c(-c3ccccc3)c(C(=O)N3CCNC[C@H]3Cc3ccccc3)[nH]c2=O)c1 [Example 114, (R)-4-(2-Benzylpiperazine-1-carbonyl)-1-(3-(methylsulfonyl)phenyl)-5-phenyl-1H-imidazol-2(3H)-one]
> 1 µM | COCCOc1cccc(Cn2c(C(=O)N3CCNCC3)c(-c3ccccc3)n(-c3ccccc3OC)c2=O)c1 [Example 187, 1-(3-(2-Methoxyethoxy)benzyl)-3-(2-methoxyphenyl)-4-phenyl-5-(piperazine-1-carbonyl)-1H-imidazol-2(3H)-one]
> 1 µM | Cc1ccccc1-n1c(-c2ccccc2)c(C(=O)N2CCNCC2)n(CCCNC(=O)c2cccc(Cl)c2)c1=O [Example 242, 3-Chloro-N-(3-(2-oxo-4-phenyl-5-(piperazine-1-carbonyl)-3-o-tolyl-2,3-dihydro-1H-imidazol-1-yl)propyl)benzamide]
0.1 to 0.5 µM | O=C(c1c(-c2ccccc2)n(-c2ccccc2)c(=O)n1Cc1ccc2ccccc2c1)N1CCNCC1 [Example 84, 1-(Naphthalen-2-ylmethyl)-3,4-diphenyl-5-(piperazine-1-carbonyl)-1H-imidazol-2(3H)-one]
> 1 µM | COCCCOc1cccc(-n2c(-c3ccccc3)c(C(=O)N3CCNCC3)n(Cc3cccc(OCCOC)c3)c2=O)c1 [Example 192, 1-(3-(2-Methoxyethoxy)benzyl)-3-(3-(3-methoxypropoxy)phenyl)-4-phenyl-5-(piperazine-1-carbonyl)-1H-imidazol-2(3H)-one]
> 1 µM | CCCCN1CCCc2ccc(-n3c(C4CC4)c(C(=O)N4CCNC[C@H]4Cc4ccccc4)[nH]c3=O)cc21 [Example 133, (R)-4-(2-Benzylpiperazine-1-carbonyl)-1-(1-butyl-1,2,3,4-tetrahydroquinolin-7-yl)-5-cyclopropyl-1H-imidazol-2(3H)-one]
> 1 µM | C[C@H]1CN(C(=O)c2[nH]c(=O)n(C3CCCCC3)c2-c2ccccc2)CCN1 [Example 39, (S)-1-Cyclohexyl-4-(3-methylpiperazine-1-carbonyl)-5-phenyl-1H-imidazol-2(3H)-one]
0.1 to 0.5 µM | COCCCOc1cccc(-n2c(-c3ccccc3)c(C(=O)N3CCNCC3)n(CCNC(=O)c3ccccc3)c2=O)c1 [Example 182, N-(2-(3-(3-(3-Methoxypropoxy)phenyl)-2-oxo-4-phenyl-5-(piperazine-1-carbonyl)-2,3-dihydro-1H-imidazol-1-yl)ethyl)benzamide]
0.1 to 0.5 µM | O=C(c1c(-c2ccccc2)n(-c2ccccc2)c(=O)n1Cc1ccc(Cl)c(OC(F)(F)F)c1)N1CCNCC1 [Example 87, 1-(4-Chloro-3-(trifluoromethoxy)benzyl)-3,4-diphenyl-5-(piperazine-1-carbonyl)-1H-imidazol-2(3H)-one]
> 1 µM | C[C@@H]1CN(C(=O)c2[nH]c(=O)n(C3CCCCC3)c2-c2ccccc2)CCN1 [Example 37, (R)-1-Cyclohexyl-4-(3-methylpiperazine-1-carbonyl)-5-phenyl-1H-imidazol-2(3H)-one]
0.5 to 1 µM | CC(=O)N1CCCC(n2c(-c3ccccc3)c(C(=O)N3CCNC[C@H]3Cc3ccccc3)[nH]c2=O)C1 (stereo partly drawn) [Example 115, 1-(1-Acetylpiperidin-3-yl)-4-((R)-2-benzylpiperazine-1-carbonyl)-5-phenyl-1H-imidazol-2(3H)-one]
> 1 µM | CCOC(=O)NCCn1c(C(=O)N2CCNCC2)c(-c2ccccc2)n(-c2ccccc2C)c1=O [Example 250, Ethyl 2-(2-oxo-4-phenyl-5-(piperazine-1-carbonyl)-3-o-tolyl-2,3-dihydro-1H-imidazol-1-yl)ethylcarbamate]
